In BindingDB's records for doi:10.7270/Q2F47MJ9 (Emory University, 2007):

Biological target: T1, Estrogen receptor (Homo sapiens, UniProt P03372)
T1 sequence (P03372 whole entry): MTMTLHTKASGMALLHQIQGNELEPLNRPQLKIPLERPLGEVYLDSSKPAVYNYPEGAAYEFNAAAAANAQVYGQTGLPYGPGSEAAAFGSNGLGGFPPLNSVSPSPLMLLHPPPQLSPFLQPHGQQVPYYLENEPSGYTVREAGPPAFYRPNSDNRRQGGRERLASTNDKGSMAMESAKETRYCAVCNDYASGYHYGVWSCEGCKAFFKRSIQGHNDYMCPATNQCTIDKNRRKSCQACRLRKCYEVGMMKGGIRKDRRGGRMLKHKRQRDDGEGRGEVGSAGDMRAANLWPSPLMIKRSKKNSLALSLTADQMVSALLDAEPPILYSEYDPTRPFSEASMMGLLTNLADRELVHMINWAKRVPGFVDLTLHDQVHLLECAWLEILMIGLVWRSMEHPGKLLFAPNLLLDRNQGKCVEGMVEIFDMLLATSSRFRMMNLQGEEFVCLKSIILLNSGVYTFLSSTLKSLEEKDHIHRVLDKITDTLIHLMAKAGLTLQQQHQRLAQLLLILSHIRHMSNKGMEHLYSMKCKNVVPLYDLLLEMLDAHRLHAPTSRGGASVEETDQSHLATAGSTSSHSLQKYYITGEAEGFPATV
Experiment: potentiators of ERα–SRC-1 coactivator binding, dose response, biochemical, TR-FRET, ERα LBD (AID 737)

| Compound | EC50 [µM] |
| --- | --- |
| O=C1c2ccccc2C(=O)C1c1ccnc2ccccc12 [2-(1H-quinolin-4-ylidene)indane-1,3-quinone] | 6.74 |
| CCn1c(=NC(=O)c2ccc(-n3c(O)ccc3O)cc2)sc2c(OC)ccc(OC)c21 [4-[2,5-bis(oxidanylidene)pyrrolidin-1-yl]-N-(3-ethyl-4,7-dimethoxy-1,3-benzothiazol-2-ylidene)benzamide] | 7.94 |

Continued by falling EC50, values first:

| EC50 [µM] | Compound |
| --- | --- |
| 25.1 | CCOc1ccc(Cc2sc(Nc3ccccn3)nc2O)cc1 [5-(4-Ethoxy-benzyl)-2-[(Z)-pyridin-2-ylimino]-thiazolidin-4-one] |
| 17.5 | CCOc1ccccc1C1c2c(-c3ccccc3)noc2N=C(N)C1C#N (stereo unspecified) [6-amino-4-(2-ethoxyphenyl)-3-phenyl-2,4-dihydroisoxazolo[5,4-b]pyridine-5-carbonitrile] |
| 6.52 | Cc1ccc(-c2n[nH]c(=S)n2NC=CCc2ccccc2[N+](=O)[O-])cc1 |
| 6.39 | CCc1[nH]nc2c1C(c1cccc(OC(=O)N3CCOCC3)c1)C(C#N)C(=N)O2 (stereo unspecified) [3-(6-amino-5-cyano-3-ethyl-1,4-dihydropyrano[2,3-c]pyrazol-4-yl)phenyl morpholine-4-carboxylate] |
